Measurements as given in the NIST ThermoML archive (doi:10.1021/je050402s).
± gives the expanded uncertainty stated by the source.

Experiment: xn = mol fraction of the nth substance listed
Conditions: 100.5 kPa, Liquid

CCOC(=O)c1ccccc1O [ethyl 2-hydroxybenzoate] + CCO
Conditions | mass density, 288.15 K [kg/m3] | mass density, 298.15 K [kg/m3] | mass density, 308.15 K [kg/m3] | mass density, 318.15 K [kg/m3] | viscosity, 288.15 K [mPa·s] | viscosity, 298.15 K [mPa·s] | viscosity, 308.15 K [mPa·s] | viscosity, 318.15 K [mPa·s]
x1 = 0.05 | 835.47 ± 0.39 | 826.63 ± 0.4 | 817.7 ± 0.41 | 808.61 ± 0.43 | 1.398 ± 0.019 | 1.145 ± 0.017 | 0.953 ± 0.016 | 0.802 ± 0.015
x1 = 0.1 | 871.02 ± 0.34 | 862 ± 0.35 | 852.86 ± 0.36 | 843.56 ± 0.38 | 1.467 ± 0.02 | 1.197 ± 0.018 | 0.998 ± 0.016 | 0.836 ± 0.015
x1 = 0.15 | 901.89 ± 0.3 | 892.7 ± 0.31 | 883.41 ± 0.33 | 873.95 ± 0.34 | 1.533 ± 0.02 | 1.258 ± 0.018 | 1.043 ± 0.017 | 0.877 ± 0.016
x1 = 0.2 | 928.98 ± 0.27 | 919.64 ± 0.28 | 910.21 ± 0.29 | 900.63 ± 0.31 | 1.615 ± 0.021 | 1.322 ± 0.019 | 1.094 ± 0.017 | 0.915 ± 0.016
x1 = 0.25 | 952.87 ± 0.24 | 943.42 ± 0.25 | 933.9 ± 0.27 | 924.22 ± 0.28 | 1.708 ± 0.022 | 1.388 ± 0.019 | 1.147 ± 0.018 | 0.957 ± 0.016
x1 = 0.3 | 974.13 ± 0.22 | 964.62 ± 0.24 | 955.01 ± 0.25 | 945.25 ± 0.26 | 1.8 ± 0.023 | 1.455 ± 0.02 | 1.198 ± 0.018 | 0.999 ± 0.016
x1 = 0.35 | 993.22 ± 0.21 | 983.64 ± 0.22 | 973.96 ± 0.23 | 964.15 ± 0.24 | 1.902 ± 0.023 | 1.526 ± 0.02 | 1.254 ± 0.018 | 1.045 ± 0.017
x1 = 0.4 | 1010.45 ± 0.22 | 1000.81 ± 0.22 | 991.08 ± 0.22 | 981.22 ± 0.23 | 2.001 ± 0.024 | 1.598 ± 0.021 | 1.313 ± 0.019 | 1.093 ± 0.017
x1 = 0.45 | 1026.08 ± 0.25 | 1016.38 ± 0.23 | 1006.61 ± 0.23 | 996.72 ± 0.22 | 2.104 ± 0.025 | 1.677 ± 0.022 | 1.373 ± 0.019 | 1.141 ± 0.017
x1 = 0.5 | 1040.36 ± 0.27 | 1030.63 ± 0.26 | 1020.8 ± 0.24 | 1010.88 ± 0.23 | 2.209 ± 0.026 | 1.757 ± 0.022 | 1.435 ± 0.02 | 1.192 ± 0.018
x1 = 0.55 | 1053.4 ± 0.28 | 1043.63 ± 0.26 | 1033.79 ± 0.25 | 1023.85 ± 0.24 | 2.317 ± 0.027 | 1.838 ± 0.023 | 1.498 ± 0.02 | 1.242 ± 0.018
x1 = 0.6 | 1065.37 ± 0.29 | 1055.57 ± 0.27 | 1045.7 ± 0.26 | 1035.76 ± 0.25 | 2.428 ± 0.028 | 1.921 ± 0.024 | 1.561 ± 0.021 | 1.294 ± 0.019
x1 = 0.65 | 1076.35 ± 0.3 | 1066.53 ± 0.29 | 1056.65 ± 0.27 | 1046.7 ± 0.26 | 2.543 ± 0.029 | 2.006 ± 0.024 | 1.627 ± 0.021 | 1.347 ± 0.019
x1 = 0.7 | 1086.51 ± 0.32 | 1076.67 ± 0.3 | 1066.79 ± 0.29 | 1056.85 ± 0.28 | 2.664 ± 0.03 | 2.096 ± 0.025 | 1.695 ± 0.022 | 1.403 ± 0.02
x1 = 0.75 | 1095.97 ± 0.33 | 1086.12 ± 0.32 | 1076.24 ± 0.3 | 1066.31 ± 0.29 | 2.8 ± 0.032 | 2.187 ± 0.026 | 1.766 ± 0.022 | 1.463 ± 0.02
x1 = 0.8 | 1104.72 ± 0.35 | 1094.88 ± 0.33 | 1085.02 ± 0.32 | 1075.11 ± 0.31 | 2.943 ± 0.033 | 2.288 ± 0.027 | 1.846 ± 0.023 | 1.527 ± 0.021
x1 = 0.85 | 1112.93 ± 0.36 | 1103.09 ± 0.35 | 1093.24 ± 0.33 | 1083.37 ± 0.32 | 3.1 ± 0.035 | 2.398 ± 0.028 | 1.932 ± 0.024 | 1.596 ± 0.021
x1 = 0.9 | 1120.61 ± 0.38 | 1110.81 ± 0.36 | 1101 ± 0.35 | 1091.17 ± 0.34 | 3.268 ± 0.037 | 2.522 ± 0.029 | 2.03 ± 0.025 | 1.678 ± 0.022
x1 = 0.95 | 1127.85 ± 0.39 | 1118.07 ± 0.38 | 1108.31 ± 0.36 | 1098.55 ± 0.35 | 3.503 ± 0.039 | 2.706 ± 0.031 | 2.163 ± 0.026 | 1.781 ± 0.023
x1 = 1 | 1134.72 ± 0.41 | 1125 ± 0.39 | 1115.29 ± 0.38 | 1105.6 ± 0.37 | 3.694 ± 0.041 | 2.831 ± 0.032 | 2.253 ± 0.027 | 1.842 ± 0.023

CCOC(=O)CC(C)C [ethyl 3-methylbutanoate] + CCO
viscosity [mPa·s], Capillary tube (Ostwald / Ubbelohde) method
Conditions | 288.15 K | 298.15 K | 308.15 K | 318.15 K
x1 = 0.05 | 1.229 ± 0.014 | 1.02 ± 0.013 | 0.852 ± 0.013 | 0.715 ± 0.013
x1 = 0.1 | 1.125 ± 0.014 | 0.945 ± 0.013 | 0.793 ± 0.013 | 0.668 ± 0.013
x1 = 0.15 | 1.057 ± 0.013 | 0.891 ± 0.013 | 0.75 ± 0.013 | 0.638 ± 0.013
x1 = 0.2 | 1.002 ± 0.013 | 0.848 ± 0.013 | 0.718 ± 0.013 | 0.618 ± 0.013
x1 = 0.25 | 0.966 ± 0.013 | 0.815 ± 0.013 | 0.695 ± 0.013 | 0.6 ± 0.013
x1 = 0.3 | 0.935 ± 0.013 | 0.791 ± 0.013 | 0.677 ± 0.013 | 0.587 ± 0.013
x1 = 0.35 | 0.908 ± 0.013 | 0.771 ± 0.013 | 0.663 ± 0.013 | 0.579 ± 0.013
x1 = 0.4 | 0.886 ± 0.013 | 0.754 ± 0.013 | 0.653 ± 0.013 | 0.571 ± 0.013
x1 = 0.45 | 0.867 ± 0.013 | 0.742 ± 0.013 | 0.645 ± 0.013 | 0.565 ± 0.013
x1 = 0.5 | 0.855 ± 0.013 | 0.733 ± 0.013 | 0.638 ± 0.013 | 0.559 ± 0.013
x1 = 0.55 | 0.847 ± 0.013 | 0.724 ± 0.013 | 0.631 ± 0.013 | 0.554 ± 0.013
x1 = 0.6 | 0.84 ± 0.013 | 0.719 ± 0.013 | 0.624 ± 0.013 | 0.55 ± 0.013
x1 = 0.65 | 0.835 ± 0.013 | 0.713 ± 0.013 | 0.62 ± 0.013 | 0.548 ± 0.013
x1 = 0.7 | 0.83 ± 0.013 | 0.713 ± 0.013 | 0.618 ± 0.013 | 0.547 ± 0.013
x1 = 0.75 | 0.827 ± 0.013 | 0.714 ± 0.013 | 0.619 ± 0.013 | 0.546 ± 0.013
x1 = 0.8 | 0.83 ± 0.013 | 0.716 ± 0.013 | 0.621 ± 0.013 | 0.549 ± 0.013
x1 = 0.85 | 0.833 ± 0.013 | 0.722 ± 0.013 | 0.625 ± 0.013 | 0.552 ± 0.013
x1 = 0.9 | 0.839 ± 0.014 | 0.727 ± 0.013 | 0.631 ± 0.013 | 0.556 ± 0.013
x1 = 0.95 | 0.845 ± 0.014 | 0.729 ± 0.013 | 0.634 ± 0.013 | 0.56 ± 0.013
x1 = 1 | 0.853 ± 0.014 | 0.739 ± 0.013 | 0.642 ± 0.013 | 0.566 ± 0.013

mass density [kg/m3]
Conditions | 288.15 K | 298.15 K | 308.15 K | 318.15 K
x1 = 0.05 | 802.64 ± 0.44 | 793.85 ± 0.45 | 784.95 ± 0.46 | 775.9 ± 0.48
x1 = 0.1 | 810.36 ± 0.43 | 801.39 ± 0.44 | 792.29 ± 0.46 | 783.04 ± 0.47
x1 = 0.15 | 817.13 ± 0.42 | 807.99 ± 0.44 | 798.73 ± 0.45 | 789.31 ± 0.46
x1 = 0.2 | 823.05 ± 0.42 | 813.77 ± 0.43 | 804.39 ± 0.45 | 794.81 ± 0.46
x1 = 0.25 | 828.3 ± 0.42 | 818.9 ± 0.43 | 809.39 ± 0.44 | 799.73 ± 0.46
x1 = 0.3 | 833.01 ± 0.42 | 823.53 ± 0.43 | 813.92 ± 0.44 | 804.15 ± 0.46
x1 = 0.35 | 837.23 ± 0.42 | 827.65 ± 0.43 | 817.96 ± 0.44 | 808.12 ± 0.46
x1 = 0.4 | 841.07 ± 0.42 | 831.42 ± 0.43 | 821.66 ± 0.45 | 811.75 ± 0.46
x1 = 0.45 | 844.57 ± 0.43 | 834.87 ± 0.44 | 825.05 ± 0.45 | 815.07 ± 0.46
x1 = 0.5 | 847.78 ± 0.43 | 838.02 ± 0.44 | 828.15 ± 0.46 | 818.12 ± 0.47
x1 = 0.55 | 850.72 ± 0.44 | 840.93 ± 0.45 | 831.01 ± 0.46 | 820.95 ± 0.47
x1 = 0.6 | 853.42 ± 0.45 | 843.59 ± 0.46 | 833.64 ± 0.47 | 823.56 ± 0.48
x1 = 0.65 | 855.93 ± 0.46 | 846.06 ± 0.47 | 836.09 ± 0.48 | 826 ± 0.49
x1 = 0.7 | 858.27 ± 0.47 | 848.38 ± 0.48 | 838.38 ± 0.49 | 828.28 ± 0.5
x1 = 0.75 | 860.46 ± 0.48 | 850.55 ± 0.49 | 840.55 ± 0.5 | 830.44 ± 0.51
x1 = 0.8 | 862.52 ± 0.49 | 852.6 ± 0.5 | 842.6 ± 0.51 | 832.48 ± 0.52
x1 = 0.85 | 864.44 ± 0.51 | 854.52 ± 0.51 | 844.51 ± 0.52 | 834.44 ± 0.53
x1 = 0.9 | 866.27 ± 0.52 | 856.34 ± 0.53 | 846.34 ± 0.53 | 836.27 ± 0.54
x1 = 0.95 | 868.03 ± 0.53 | 858.12 ± 0.54 | 848.15 ± 0.55 | 838.1 ± 0.55
x1 = 1 | 869.66 ± 0.55 | 859.78 ± 0.55 | 849.83 ± 0.56 | 839.81 ± 0.57
